# In patent US7482342B2, “Indazolecarboxamide derivatives, preparation and use thereof as CDK1, CDK2 and CDK4 inhibitors” (sanofi-aventis, priority 2002, dated 2009):
# Conditions: not given
row,melting point [°C],Compound
1,> 250,O=C(O)c1cccc(NC(=O)c2n[nH]c3ccccc23)c1
2,187 to 188,CCOC(=O)c1cccc(NC(=O)c2n[nH]c3ccccc23)c1
3,> 260,O=C(Nc1ccncc1)c1n[nH]c2ccc([N+](=O)[O-])cc12
4,154 to 155,O=C(NCCCn1ccnc1)c1n[nH]c2ccccc12
5,> 260,O=C(Nc1ccncc1)c1n[nH]c2ccc(I)cc12
6,218,"O=C(Nc1ccc(Nc2ccccc2)cc1)c1n[nH]c2ccccc12 [Compound No. 4, N-(4-Phenylaminophenyl)-1H-indazole-3-carboxamide]"

# Conditions: prior art; cited from earlier work
row,Compound,pharmacological activity
1,Cc1ccc(CNC(=O)c2n[nH]c3ccccc23)cc1 [N-(4-Methylbenzyl)-1H-indazole-3-carboxamide],no pharmacological activity
